Test results as given in patent US10065990B2, “Cyclic peptide compound, and preparation method, pharmaceutical composition and use thereof” (HANGZHOU GUANYU BIO-MEDICAL CO., LTD, priority 2013, dated 2018).
pIC50: −log10 of the molar value. Like-named read-outs stand apart in the source and are kept apart here. Each block holds one molecule with its values, some of them ahead of it.

Key:
HDAC1 = HDAC1 (Homo sapiens, UniProt Q13547); test: HDAC biochemical activity measurement (fluorescent substrate deacetylation);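 note: fluorogenic acetyl-lysine substrate (20 µM) deacetylated by HDAC1, then developer releases fluorophore read at 360 nm excitation and 460 nm emission, inhibitor incubated 30 min at 37 °C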
HDAC1, sequence (Q13547 whole entry, species assumed): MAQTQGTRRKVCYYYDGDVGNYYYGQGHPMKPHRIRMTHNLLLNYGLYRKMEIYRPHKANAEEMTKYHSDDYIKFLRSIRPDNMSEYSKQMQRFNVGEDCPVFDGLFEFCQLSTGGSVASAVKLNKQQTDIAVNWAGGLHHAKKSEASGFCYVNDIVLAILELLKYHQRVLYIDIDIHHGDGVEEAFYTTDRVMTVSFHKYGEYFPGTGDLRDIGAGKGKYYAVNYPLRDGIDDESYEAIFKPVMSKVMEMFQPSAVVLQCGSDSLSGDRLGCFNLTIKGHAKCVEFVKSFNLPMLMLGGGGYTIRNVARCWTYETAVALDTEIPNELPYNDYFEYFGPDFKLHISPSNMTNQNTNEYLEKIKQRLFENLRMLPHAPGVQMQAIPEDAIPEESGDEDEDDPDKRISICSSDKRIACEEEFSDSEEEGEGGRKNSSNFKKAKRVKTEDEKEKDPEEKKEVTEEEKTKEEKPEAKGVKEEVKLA

[1] = tested on: A549 (human lung cancer cells); test: MTT cancer cell growth inhibition; format: cell-based; conditions: MTT, 72 hours incubation, read-out: GI50 A54
Summary of the method: (§1)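 Using a 72 h MTT format, triplicate wells of 1500 cells received compound concentrations from 10^−5 to 10^−10 M. Formazan was read at 570 nm after DMSO dissolution, and GI50 was derived from viability.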

[2] = tested on: BGC-823 (human gastric cancer cells); test: MTT cancer cell growth inhibition; format: cell-based; conditions: MTT, 72 hours incubation, read-out: GI50 BG
Summary of the method: as §1

[3] = tested on: Bel-7402 (human hepatoma cells); test: MTT cancer cell growth inhibition; format: cell-based; conditions: MTT, 72 hours incubation, Bel-7402 cells, read-out: GI50 Bel-7402
Summary of the method: as §1

[4] = tested on: DU145 (human prostate cancer cells); test: MTT cancer cell growth inhibition; format: cell-based; conditions: MTT, 72 hours incubation, read-out: GI50 Du1
Summary of the method: as §1

[5] = tested on: H1975 (non-small cell lung adenocarcinoma); test: MTT cancer cell growth inhibition; format: cell-based; conditions: MTT, 72 hours incubation, H1975 cells, read-out: GI50 H1975
Summary of the method: as §1

[6] = tested on: HCC827 (human non-small cell lung cancer cells); test: MTT cancer cell growth inhibition; format: cell-based; conditions: MTT, 72 hours incubation, HCC827 cells, read-out: GI50 HCC827
Summary of the method: as §1

[7] = tested on: HT1080 (human fibrosarcoma cells); test: MTT cancer cell growth inhibition; format: cell-based; conditions: MTT, 72 hours incubation, read-out: GI50 HT1
Summary of the method: as §1

[8] = tested on: Hela (human cervical cancer cells); test: MTT cancer cell growth inhibition; format: cell-based; conditions: MTT, 72 hours incubation, read-out: GI50 Hela
Summary of the method: as §1

[9] = tested on: Huh-7 (human hepatoma cells); test: MTT cancer cell growth inhibition; format: cell-based; conditions: MTT, 72 hours incubation, Huh-7 cells, read-out: GI50 Huh-7
Summary of the method: as §1

[10] = tested on: K562 (human leukemia cells); test: MTT cancer cell growth inhibition; format: cell-based; conditions: MTT, 72 hours incubation, K562 cells, read-out: GI50 K562
Summary of the method: as §1

[11] = tested on: KBM-5 (human chronic myelogenous leukemia); test: MTT cancer cell growth inhibition; format: cell-based; conditions: MTT, 72 hours incubation, KBM-5 cells, read-out: GI50 KBM-5
Summary of the method: as §1

[12] = tested on: KBM5-T315I (human chronic myelogenous leukemia); test: MTT cancer cell growth inhibition; format: cell-based; conditions: MTT, 72 hours incubation, KBM5-T315I cells, read-out: GI50 KBM5-T315I
Summary of the method: as §1

[13] = tested on: MCF-7 (human breast cancer cells); test: MTT cancer cell growth inhibition; format: cell-based; conditions: 72 hours incubation, read-out: GI50 MCF
Summary of the method: as §1

[14] = tested on: MDA-MB-231 (breast cancer cells); test: MTT cancer cell growth inhibition; format: cell-based
Summary of the method: as §1

[15] = tested on: MOLT-4 (human acute lymphoblastic leukemia cells); test: MTT cancer cell growth inhibition; format: cell-based; conditions: MTT, 72 hours incubation, read-out: GI50 Mol
Summary of the method: as §1

[16] = tested on: N-87 (human gastric cancer cells); test: MTT cancer cell growth inhibition; format: cell-based; conditions: MTT, 72 hours incubation, N-87 cells, read-out: GI50 N-87
Summary of the method: as §1

[17] = tested on: PANC-1 (Pac-1, human pancreatic cancer cells); test: MTT cancer cell growth inhibition; format: cell-based; conditions: MTT, 72 hours incubation, read-out: GI50 PAN
Summary of the method: as §1

[18] = tested on: SGC-7901 (human gastric cancer cells); test: MTT cancer cell growth inhibition; format: cell-based; conditions: MTT, 72 hours incubation, SGC-7901 cells, read-out: GI50 SGC-7901
Summary of the method: as §1

[19] = tested on: U937 (human leukemia cells); test: MTT cancer cell growth inhibition; format: cell-based; conditions: MTT, 72 hours incubation, read-out: GI50 U93
Summary of the method: as §1

[20] = tested on: lncap (prostate cancer cells); test: MTT cancer cell growth inhibition; format: cell-based; conditions: MTT, 72 hours incubation, read-out: GI50 lnca
Summary of the method: as §1

HDAC7 = biological target: T1, HDAC7 (Homo sapiens, UniProt Q8WUI4); test: HDAC biochemical activity measurement (fluorescent substrate deacetylation);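 note: fluorogenic deacetylation assay using acetyl-lysine substrate at 20 µM, enzyme and compound incubated 30 min at 37 °C, then developer added, fluorescence read at 360/460 nm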; conditions: HDAC7; 37° C. 30 minutes
T1 sequence (Q8WUI4 1-952): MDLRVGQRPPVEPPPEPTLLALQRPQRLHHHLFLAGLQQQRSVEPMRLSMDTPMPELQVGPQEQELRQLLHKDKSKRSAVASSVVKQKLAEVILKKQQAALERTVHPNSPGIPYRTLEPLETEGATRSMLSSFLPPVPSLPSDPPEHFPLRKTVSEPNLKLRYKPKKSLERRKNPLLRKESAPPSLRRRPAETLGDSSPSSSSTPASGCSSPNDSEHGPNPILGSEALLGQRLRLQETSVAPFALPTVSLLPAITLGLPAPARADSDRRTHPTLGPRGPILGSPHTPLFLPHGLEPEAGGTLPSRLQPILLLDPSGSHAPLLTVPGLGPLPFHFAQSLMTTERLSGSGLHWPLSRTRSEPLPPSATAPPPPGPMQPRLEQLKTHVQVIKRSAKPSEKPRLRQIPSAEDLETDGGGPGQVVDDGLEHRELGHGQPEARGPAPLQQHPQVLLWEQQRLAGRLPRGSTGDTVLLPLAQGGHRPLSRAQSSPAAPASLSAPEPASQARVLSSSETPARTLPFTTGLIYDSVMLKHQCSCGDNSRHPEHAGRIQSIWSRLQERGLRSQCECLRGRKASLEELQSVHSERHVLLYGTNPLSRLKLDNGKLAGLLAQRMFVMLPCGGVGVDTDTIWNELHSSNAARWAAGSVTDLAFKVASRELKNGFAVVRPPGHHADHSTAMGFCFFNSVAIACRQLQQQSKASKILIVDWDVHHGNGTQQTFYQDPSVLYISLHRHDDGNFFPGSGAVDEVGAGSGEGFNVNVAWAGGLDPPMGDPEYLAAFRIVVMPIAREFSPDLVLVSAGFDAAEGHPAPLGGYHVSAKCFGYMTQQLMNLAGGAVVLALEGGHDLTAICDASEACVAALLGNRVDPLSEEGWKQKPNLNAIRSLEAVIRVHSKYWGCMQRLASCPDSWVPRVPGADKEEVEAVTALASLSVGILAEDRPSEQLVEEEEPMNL

HDAC2 = HDAC2 (Homo sapiens, UniProt Q92769); test: as above; conditions: 37° C. 30 minutes;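 note: HDAC2 enzyme with an acetyl-lysine fluorescent substrate, then developer added, fluorescence read at excitation 360 nm and emission 460 nm, inhibition measured across several compound concentrations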
HDAC2, sequence (Q92769 whole entry, species assumed): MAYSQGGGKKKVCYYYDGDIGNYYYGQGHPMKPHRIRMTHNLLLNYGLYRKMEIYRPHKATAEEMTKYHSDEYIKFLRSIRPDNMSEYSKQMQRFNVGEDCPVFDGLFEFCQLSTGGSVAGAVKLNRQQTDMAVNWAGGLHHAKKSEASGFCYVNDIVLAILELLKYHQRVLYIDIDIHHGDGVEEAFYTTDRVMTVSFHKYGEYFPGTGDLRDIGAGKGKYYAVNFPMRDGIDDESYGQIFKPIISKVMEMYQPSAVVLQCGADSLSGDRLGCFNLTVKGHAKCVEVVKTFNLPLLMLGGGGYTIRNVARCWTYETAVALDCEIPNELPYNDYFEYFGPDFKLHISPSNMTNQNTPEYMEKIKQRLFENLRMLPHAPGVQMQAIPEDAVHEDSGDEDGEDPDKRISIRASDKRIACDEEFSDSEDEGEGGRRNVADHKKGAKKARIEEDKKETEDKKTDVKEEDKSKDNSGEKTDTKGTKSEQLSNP

HDAC11 = biological target: T2, HDAC11 (Homo sapiens, UniProt Q96DB2); test: as above; conditions: read-out: IC50 HDAC11; HDAC11; 37° C. 30 minutes;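 note: HDAC11 enzyme acting on an acetyl-lysine fluorogenic substrate, then a developer frees the fluorophore, read at excitation 360 nm and emission 460 nm, IC50 over a compound dilution series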
T2 sequence (Q96DB2 1-347): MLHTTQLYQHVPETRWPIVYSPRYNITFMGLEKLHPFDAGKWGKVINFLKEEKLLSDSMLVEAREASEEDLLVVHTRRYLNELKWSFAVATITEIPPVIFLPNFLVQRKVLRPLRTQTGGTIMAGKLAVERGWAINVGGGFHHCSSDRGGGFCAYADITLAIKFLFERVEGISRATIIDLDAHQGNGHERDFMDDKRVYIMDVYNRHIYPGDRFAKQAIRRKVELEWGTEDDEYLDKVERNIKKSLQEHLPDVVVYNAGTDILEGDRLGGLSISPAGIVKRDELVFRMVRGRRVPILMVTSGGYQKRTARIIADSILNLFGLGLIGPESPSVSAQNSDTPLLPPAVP

[21] = read-out: GI50 MDA-MB-231, MTT, 72 hours incubation, MDA-MB-231 cells

pIC50 (HDAC1; Table 3, column C, read-out: IC50 HDAC1, C (six-membered ring with substituents)): 7.62 | GI50 ([1]; Homo sapiens, A549, 72 h): 30 nM | GI50 ([2]; Homo sapiens, BGC-823, 72 h): 30 nM | GI50 ([3]; Homo sapiens, Bel-7402, 72 h): 51 nM | GI50 ([4]; Homo sapiens, DU-145, 72 h): 20 nM | GI50 ([5]; Homo sapiens, NCI-H1975, 72 h): 38 nM | GI50 ([6]; Homo sapiens, HCC827, 72 h): 51 nM | GI50 ([7]; Homo sapiens, HT-1080, 72 h): 50 nM | GI50 ([8]; Homo sapiens, HeLa, 72 h): 80 nM | GI50 ([9]; Homo sapiens, Huh-7, 72 h): 46 nM | GI50 ([10]; Homo sapiens, K562, 72 h): 26 nM | GI50 ([11]; Homo sapiens, KBM5, 72 h): 82 nM | GI50 ([12]; Homo sapiens, 72 h): 22 nM | GI50 ([13]; Homo sapiens, MCF7, 72 h): 20 nM | GI50 ([14]; Homo sapiens, MDA-MB-231, 72 h, read-out: GI50 MDA-MB-231, MTT, 72 hours incubation, MDA-MB-231 cells): 46 nM | GI50 ([15]; Homo sapiens, MOLT-4, 72 h): 40 nM | GI50 ([16]; Homo sapiens, 72 h): 30 nM | GI50 ([17]; Homo sapiens, PANC-1, 72 h): 50 nM | GI50 ([18]; Homo sapiens, SGC-7901, 72 h): 35 nM | GI50 ([19]; Homo sapiens, U-937, 72 h): 30 nM | GI50 ([20]; Homo sapiens, LNCaP, 72 h): 40 nM
SMILES: C/C=C1\NC(=O)c2cc(F)cc(n2)CNC(=O)C[C@@H](/C=C/CCSC(C)=O)OC(=O)[C@H](C)NC1=O [Compound 64]

pIC50 (HDAC1; HDAC1, 37° C. 30 minutes, read-out: IC50 HDAC1): 7.18 | IC50 HDAC7 (HDAC7): no activity | GI50 ([1]; A549 cells): 50 nM | GI50 ([2]; BGC-823 cells): 40 nM | GI50 [3]: 19 nM | GI50 ([4]; DU145 cells): 30 nM | GI50 [5]: 37 nM | GI50 [6]: 15 nM | GI50 ([7]; HT1080 cells): 20 nM | GI50 ([8]; Hela cells): 20 nM | GI50 [9]: 65 nM | GI50 [10]: 48 nM | GI50 [11]: 25 nM | GI50 [12]: 42 nM | GI50 ([13]; MCF-7 cells): 30 nM | GI50 [14, 21]: 47 nM | GI50 ([15]; MOLT-4 cells): 70 nM | GI50 [16]: 17 nM | GI50 ([17]; PANC-1 cells): 40 nM | GI50 [18]: 48 nM | GI50 ([19]; U937 cells): 90 nM | GI50 ([20]; lncap cells): 100 nM
SMILES: C/C=C1\NC(=O)c2ccc(SC)c(n2)CNC(=O)C[C@@H](/C=C/CCSC(C)=O)OC(=O)[C@H](C)NC1=O [Compound 215]

pIC50 (HDAC2): 7.47 | IC50 HDAC7 (HDAC7): no activity | GI50 ([1]; A549 cells): 70 nM | GI50 ([2]; BGC-823 cells): 30 nM | GI50 [3]: 53 nM | GI50 ([4]; DU145 cells): 20 nM | GI50 [5]: 76 nM | GI50 [6]: 28 nM | GI50 ([7]; HT1080 cells): 20 nM | GI50 ([8]; Hela cells): 50 nM | GI50 [9]: 35 nM | GI50 [10]: 28 nM | GI50 [11]: 78 nM | GI50 [12]: 54 nM | GI50 ([13]; MCF-7 cells): 90 nM | GI50 [14, 21]: 37 nM | GI50 ([15]; MOLT-4 cells): 40 nM | GI50 [16]: 42 nM | GI50 ([17]; PANC-1 cells): 80 nM | GI50 [18]: 58 nM | GI50 ([19]; U937 cells): 70 nM | GI50 ([20]; lncap cells): 70 nM | pIC50 (HDAC11): 7.06
SMILES: C/C=C1\NC(=O)c2nc(ccc2SC)CNC(=O)C[C@@H](/C=C/CCSC(C)=O)OC(=O)[C@H](C)NC1=O [Compound 213]
